# In patent US20040219214A1, “Tissue reactive compounds and compositions and uses thereof” (Angiotech International AG, priority 2002, published 2004):
# How the values were obtained:
# [1] = system: TNFα production by THP-1 cells; experiment: TNF-alpha production by macrophages (ELISA); format: cell-based, human; settings: opsonized zymosan stimulation, 24 hours; average of n=4 experiments
# Procedure: The human macrophage cell line, THP-1 is plated in a 12 well plate such that each well contains 1×10^6 cells in 2 mL of media containing 10% FCS. Opsonized zymosan is prepared by resuspending 20 mg of zymosan A in 2 mL of ddH2O and homogenizing until a uniform suspension is obtained. Homogenized zymosan is pelleted at 250 g and resuspended in 4 mL of human serum for a final concentration of 5 mg/mL. and incubated in a 37° C. water bath for 20 minutes to enable opsonization. Bay 11-7082 is prepared in DMSO at a concentration of 10^−2 M and serially diluted 10-fold to give a range of stock concentrations (10^−8 M to 10^−2 M) (J. Immunol. (2000) 165: 411-418; J. Immunol. (2000) 164: 4804-4811; J. Immunol Meth. (2000) 235 (1-2): 33-40).
# THP-1 cells are stimulated to produce TNFα by the addition of 1 mg/mL opsonized zymosan. […]
# After a 24 hour stimulation, supernatants are collected to quantify TNFα production. TNFα concentrations in the supernatants are determined by ELISA using recombinant human TNFα to obtain a standard curve. […] The dilution of Capture Antibody used is lot-specific and is determined empirically. […] Stop Solution (2 N H2SO4) is then added to the wells and a yellow colour reaction is read at 450 nm with A correction at 570 nm. Mean absorbance is determined from triplicate data readings and the mean background is subtracted. […]
# human fibroblasts = experiment: Screening assay for effect on cell proliferation (CYQUANT); format: cell-based; settings: Fibroblast, 72 hours incubation, average of n=4 experiments
# Procedure: Fibroblasts at 70-90% confluency are trypsinized, replated at 600 cells/well in media in 96-well plates and allowed to attachment overnight. Mitoxantrone is prepared in DMSO at a concentration of […] and diluted 10-fold to give a range of stock concentrations (10^−8 M to 10^−2 M). Drug dilutions are diluted 1/1000 in media and added to cells to give a total volume of 200 μL/well. Each drug concentration is tested in triplicate wells. Plates containing fibroblasts and mitoxantrone are incubated at 37° C. for 72 hours (In vitro toxicol. (1990) 3: 219; Biotech. Histochem. (1993) 68: 29; Anal. Biochem. (1993)213: 426).
# To terminate the assay, the media is removed by gentle aspiration. A 1/400 dilution of CYQUANT 400× GR dye indicator (Molecular Probes; Eugene, Oreg.) is added to 1× Cell Lysis buffer, and 200 μL of the mixture is added to the wells of the plate. Plates are incubated at room temperature, protected from light for 3-5 minutes. Fluorescence is read in a fluorescence microplate reader at ˜480 nm excitation wavelength and ˜520 nm emission maxima. Inhibitory concentration of 50% (IC50) is determined by taking the average of triplicate wells and comparing average relative fluorescence units to the DMSO control. An average of n=4 replicate experiments is used to determine IC50 values. (IC50=20 nM for proliferation of human fibroblasts).
# [2] = system: nitric oxide production in RAW 264.7 cells; experiment: Nitric oxide production by macrophages (Greiss assay); format: cell-based, murine; settings: Mus musculus, RAW264.7; IFNγ and LPS stimulation, 24 hours; average of n=4 experiments
# Procedure: The murine macrophage cell line RAW 264.7 is trypsinized to remove cells from flasks and plated in individual wells of a 6-well plate. Approximately 2×10^6 cells are plated in 2 mL of media containing 5% heat-inactivated fetal bovine serum (FBS). RAW 264.7 cells are incubated at 37° C. for 1.5 hours to allow adherence to plastic. Mitoxantrone is prepared in DMSO at a concentration of 10^−2 M and serially diluted 10-fold to give a range of stock concentrations (10^−8 M to 10^−2 M). Media is then removed and cells are incubated in 1 ng/mL of recombinant murine IFNγ and 5 ng/mL of LPS with or without mitoxantrone in fresh media containing 5% FBS. Mitoxantrone is added to cells by directly adding mitoxantrone DMSO stock solutions, prepared earlier, at a 1/1000 dilution, to each well. Plates containing IFNγ, LPS plus or minus mitoxantrone are incubated at 37° C. for 24 hours (Chem. Ber. (1879) 12: 426; J. AOAC (1977) 60-594; Ann. Rev. Biochem. (1994) 63: 175).
# At the end of the 24 hour period, supernatants are collected from the cells and assayed for the production of nitrites. […] Optical density is read immediately on microplate spectrophotometer at 562 nm absorbance. Absorbance over triplicate wells is averaged after subtracting background and concentration values are obtained from the nitrite standard curve (1 μM to 2 mM). […]
SMILES,IC50 [1] [µM],IC50 (human fibroblasts) [µM],IC50 [2] [µM]
Cc1ccc(S(=O)(=O)/C=C/C#N)cc1 [Bay 11-7082],0.81,,
"O=C1c2c(O)ccc(O)c2C(=O)c2c(NCCNCCO)ccc(NCCNCCO)c21 [Mitoxantrone, 9,10-Anthracenedione, 1,4-dihydroxy-5,8-bis((2-((2-hydroxyethyl)amino]ethyl]amino]-]",,0.02,0.927
